{
  "source": "patent US11691980B2",
  "about": "“Liphagal analog and multi-targeted kinase inhibitor containing liphagal or analog thereof” (TOHOKU UNIVERSITY, priority 2017, dated 2023)",
  "assay_type_in_all_cases": "biochemical",
  "key": {"PDGFRβ": {"molecular_target": "T1, PDGFRβ (Homo sapiens, UniProt P09619)", "T1 construct": "purchased Carna Biosciences", "assay": "mobility shift assay"}, "RSK1": {"molecular_target": "T2, RSK1 (Homo sapiens, UniProt Q15418)", "T2 construct": "purchased Carna Biosciences", "assay": "mobility shift assay"}, "MARK4": {"molecular_target": "T3, MARK4 (Homo sapiens, UniProt Q96L34)", "T3 construct": "purchased Carna Biosciences", "assay": "mobility shift assay"}, "EPHA6": {"molecular_target": "T4, EPHA6 (Homo sapiens, UniProt Q9UF33)", "T4 construct": "purchased Carna Biosciences", "assay": "mobility shift assay"}, "PIK3CA/PIK3R1": {"molecular_target": "PIK3CA/PIK3R1 (Homo sapiens, UniProt P42336)", "assay": "mobility shift assay", "set-up": "purchased Carna Biosciences", "method": "LG-1 (liphgal) at 10 μM was assessed for its inhibitory activity against 313 kinds of kinases by mobility shift assay or IMAP Assay™ (Carna Biosciences). Specifically, the assessment was performed by the IMAP Assay™ (Carna Biosciences) for SPRK1, PLK2, PKR, PKN1, PEK, IRAK1, and EKKα among the 313 kinds of kinases, and the assessment was performed by the mobility shift assay for all the other kinases. Inhibitory activity (% inhibition) against each kinase is represented by the size of a bubble on a protein kinase phylogenetic tree of FIG. 2."}, "CLK3": {"molecular_target": "T5, CLK3 (Homo sapiens, UniProt P49761)", "T5 construct": "purchased Carna Biosciences", "assay": "mobility shift assay"}, "PHKG1": {"molecular_target": "T6, PHKG1 (Homo sapiens, UniProt Q16816)", "T6 construct": "purchased Carna Biosciences", "assay": "mobility shift assay"}, "PKN1": {"molecular_target": "T7, PKN1 (Homo sapiens, UniProt Q16512)", "T7 construct": "purchased Carna Biosciences", "assay": "IMAP Assay"}, "PRKX": {"molecular_target": "T8, PRKX (Homo sapiens, UniProt P51817)", "T8 construct": "purchased Carna Biosciences", "assay": "mobility shift assay"}, "PHKG2": {"molecular_target": "T9, PHKG2 (Homo sapiens, UniProt P15735)", "T9 construct": "purchased Carna Biosciences", "assay": "mobility shift assay"}, "FES": {"molecular_target": "T10, FES (Homo sapiens, UniProt P07332)", "T10 construct": "purchased Carna Biosciences", "assay": "mobility shift assay"}, "KIT(D816V)": {"molecular_target": "T11, KIT(D816V) (Homo sapiens, UniProt P10721, D816V)", "T11 construct": "purchased Carna Biosciences", "T11 sequence (P10721 26-976 D816V)": "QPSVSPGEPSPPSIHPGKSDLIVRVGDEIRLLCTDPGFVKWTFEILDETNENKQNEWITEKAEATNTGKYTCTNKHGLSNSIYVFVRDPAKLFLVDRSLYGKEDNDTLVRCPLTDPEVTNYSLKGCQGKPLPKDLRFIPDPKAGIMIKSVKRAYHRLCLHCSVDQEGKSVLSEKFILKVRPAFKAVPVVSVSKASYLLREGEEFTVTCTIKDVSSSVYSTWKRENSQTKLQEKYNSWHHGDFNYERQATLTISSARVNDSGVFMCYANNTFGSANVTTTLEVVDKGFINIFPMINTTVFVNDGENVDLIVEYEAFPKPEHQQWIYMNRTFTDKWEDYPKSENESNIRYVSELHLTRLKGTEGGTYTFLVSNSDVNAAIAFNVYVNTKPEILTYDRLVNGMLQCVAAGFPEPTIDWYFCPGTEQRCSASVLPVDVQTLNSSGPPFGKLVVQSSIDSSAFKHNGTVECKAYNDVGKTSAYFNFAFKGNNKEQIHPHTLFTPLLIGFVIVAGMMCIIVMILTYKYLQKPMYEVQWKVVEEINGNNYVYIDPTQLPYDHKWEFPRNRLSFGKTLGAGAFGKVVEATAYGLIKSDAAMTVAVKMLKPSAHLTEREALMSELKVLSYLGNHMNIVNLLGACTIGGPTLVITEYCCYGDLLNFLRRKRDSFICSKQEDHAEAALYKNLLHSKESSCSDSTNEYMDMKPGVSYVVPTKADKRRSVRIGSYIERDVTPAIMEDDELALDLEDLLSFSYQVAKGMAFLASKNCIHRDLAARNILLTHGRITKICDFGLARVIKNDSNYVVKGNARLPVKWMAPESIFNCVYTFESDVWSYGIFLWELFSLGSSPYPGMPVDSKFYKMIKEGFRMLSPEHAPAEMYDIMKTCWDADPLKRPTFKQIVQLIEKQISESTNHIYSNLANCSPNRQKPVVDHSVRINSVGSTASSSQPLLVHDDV", "assay": "mobility shift assay"}, "CSK": {"molecular_target": "T12, CSK (Homo sapiens, UniProt P41240)", "T12 construct": "purchased Carna Biosciences", "assay": "mobility shift assay"}, "RET": {"molecular_target": "T13, RET (Homo sapiens, UniProt P07949)", "T13 construct": "purchased Carna Biosciences", "assay": "mobility shift assay"}, "ITK": {"molecular_target": "T14, ITK (Homo sapiens, UniProt Q08881)", "T14 construct": "purchased Carna Biosciences", "assay": "mobility shift assay"}, "EEF2K": {"molecular_target": "T15, EEF2K (Homo sapiens, UniProt O00418)", "T15 construct": "purchased Carna Biosciences", "assay": "mobility shift assay"}, "MAPXK2 Cascade": {"system": "MAPXK2 Cascade", "assay": "mobility shift assay", "settings": "10 μM"}, "CDC2/CycB1": {"molecular_target": "T16, CDC2/CycB1 (Homo sapiens, UniProt P06493)", "T16 construct": "purchased Carna Biosciences", "assay": "mobility shift assay"}, "KIT(T670I)": {"molecular_target": "T17, KIT(T670I) (Homo sapiens, UniProt P10721, T670I)", "T17 construct": "purchased Carna Biosciences", "T17 sequence (P10721 26-976 T670I)": "as the sequence (P10721 26-976 D816V) above, with T645I, V791D counted along it", "assay": "mobility shift assay"}, "CDK3/CycE1": {"molecular_target": "T18, CDK3/CycE1 (Homo sapiens, UniProt Q00526)", "T18 construct": "purchased Carna Biosciences", "assay": "mobility shift assay"}, "AKT2": {"molecular_target": "T19, AKT2 (Homo sapiens, UniProt P31751)", "T19 construct": "purchased Carna Biosciences", "T19 sequence (P31751 whole entry)": "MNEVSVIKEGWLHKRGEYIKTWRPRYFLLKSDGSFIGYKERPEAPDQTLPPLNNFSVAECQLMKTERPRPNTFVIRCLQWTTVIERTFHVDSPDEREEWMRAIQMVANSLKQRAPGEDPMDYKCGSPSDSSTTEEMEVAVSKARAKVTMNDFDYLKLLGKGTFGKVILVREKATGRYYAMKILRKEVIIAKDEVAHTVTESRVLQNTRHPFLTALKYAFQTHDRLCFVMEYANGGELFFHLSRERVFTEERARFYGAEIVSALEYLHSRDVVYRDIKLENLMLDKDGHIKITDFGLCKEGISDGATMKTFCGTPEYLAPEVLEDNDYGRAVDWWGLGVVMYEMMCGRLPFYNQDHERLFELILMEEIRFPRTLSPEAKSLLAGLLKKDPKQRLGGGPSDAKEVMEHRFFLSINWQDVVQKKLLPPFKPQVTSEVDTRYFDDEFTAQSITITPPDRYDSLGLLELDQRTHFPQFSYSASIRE", "assay": "mobility shift assay"}, "RAF1_Cascade": {"molecular_target": "T20, RAF1_Cascade (Homo sapiens, UniProt P04049)", "T20 construct": "purchased Carna Biosciences", "assay": "mobility shift assay"}, "DDR2": {"molecular_target": "T21, DDR2 (Homo sapiens, UniProt Q16832)", "T21 construct": "purchased Carna Biosciences", "assay": "mobility shift assay"}, "LATS2": {"molecular_target": "T22, LATS2 (Homo sapiens, UniProt Q9NRM7)", "T22 construct": "purchased Carna Biosciences", "assay": "mobility shift assay"}, "PKD1": {"molecular_target": "T23, PKD1 (Homo sapiens, UniProt Q15139)", "T23 construct": "purchased Carna Biosciences", "assay": "mobility shift assay"}, "FLT4": {"molecular_target": "T24, FLT4 (Homo sapiens, UniProt P35916)", "T24 construct": "purchased Carna Biosciences", "T24 sequence (P35916 25-1363)": "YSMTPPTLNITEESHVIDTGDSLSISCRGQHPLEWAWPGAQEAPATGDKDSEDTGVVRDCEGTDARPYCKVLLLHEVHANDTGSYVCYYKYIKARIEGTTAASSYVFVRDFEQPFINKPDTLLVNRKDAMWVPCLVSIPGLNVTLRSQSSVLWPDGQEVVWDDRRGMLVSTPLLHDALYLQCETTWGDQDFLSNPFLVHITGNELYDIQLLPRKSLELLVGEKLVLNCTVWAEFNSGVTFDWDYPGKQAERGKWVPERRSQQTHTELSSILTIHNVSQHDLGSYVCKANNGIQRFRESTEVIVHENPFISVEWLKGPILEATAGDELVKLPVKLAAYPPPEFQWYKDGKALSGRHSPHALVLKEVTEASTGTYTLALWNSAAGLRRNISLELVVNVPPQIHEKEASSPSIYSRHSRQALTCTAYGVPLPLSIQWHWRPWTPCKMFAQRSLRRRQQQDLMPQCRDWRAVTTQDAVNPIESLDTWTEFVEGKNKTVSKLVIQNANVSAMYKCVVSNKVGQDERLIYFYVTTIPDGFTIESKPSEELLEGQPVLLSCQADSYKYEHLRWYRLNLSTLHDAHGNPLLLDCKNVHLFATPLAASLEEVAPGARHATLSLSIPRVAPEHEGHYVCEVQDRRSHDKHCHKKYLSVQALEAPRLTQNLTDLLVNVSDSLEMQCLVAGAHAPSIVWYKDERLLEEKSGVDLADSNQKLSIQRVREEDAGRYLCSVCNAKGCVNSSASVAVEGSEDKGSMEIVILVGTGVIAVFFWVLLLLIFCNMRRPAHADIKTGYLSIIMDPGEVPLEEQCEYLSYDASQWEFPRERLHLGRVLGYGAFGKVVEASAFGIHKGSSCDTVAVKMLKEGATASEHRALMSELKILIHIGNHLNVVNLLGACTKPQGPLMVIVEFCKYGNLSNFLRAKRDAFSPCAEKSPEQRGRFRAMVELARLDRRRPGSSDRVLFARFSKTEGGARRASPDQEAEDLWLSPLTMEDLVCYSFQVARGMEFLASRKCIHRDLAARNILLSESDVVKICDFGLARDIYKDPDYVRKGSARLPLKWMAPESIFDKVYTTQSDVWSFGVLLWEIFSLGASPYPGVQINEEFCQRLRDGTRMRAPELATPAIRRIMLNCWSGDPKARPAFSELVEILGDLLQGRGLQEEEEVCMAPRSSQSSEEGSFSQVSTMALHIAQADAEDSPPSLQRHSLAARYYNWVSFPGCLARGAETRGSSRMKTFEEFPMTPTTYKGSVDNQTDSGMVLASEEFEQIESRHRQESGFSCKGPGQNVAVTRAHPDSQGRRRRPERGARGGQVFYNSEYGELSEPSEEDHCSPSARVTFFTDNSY", "assay": "mobility shift assay"}, "EFHB2": {"molecular_target": "T25, EFHB2 (Homo sapiens, UniProt P29323)", "T25 construct": "purchased Carna Biosciences", "assay": "mobility shift assay"}, "PAK4": {"molecular_target": "T26, PAK4 (Homo sapiens, UniProt O96013)", "T26 construct": "purchased Carna Biosciences", "T26 sequence (O96013 whole entry)": "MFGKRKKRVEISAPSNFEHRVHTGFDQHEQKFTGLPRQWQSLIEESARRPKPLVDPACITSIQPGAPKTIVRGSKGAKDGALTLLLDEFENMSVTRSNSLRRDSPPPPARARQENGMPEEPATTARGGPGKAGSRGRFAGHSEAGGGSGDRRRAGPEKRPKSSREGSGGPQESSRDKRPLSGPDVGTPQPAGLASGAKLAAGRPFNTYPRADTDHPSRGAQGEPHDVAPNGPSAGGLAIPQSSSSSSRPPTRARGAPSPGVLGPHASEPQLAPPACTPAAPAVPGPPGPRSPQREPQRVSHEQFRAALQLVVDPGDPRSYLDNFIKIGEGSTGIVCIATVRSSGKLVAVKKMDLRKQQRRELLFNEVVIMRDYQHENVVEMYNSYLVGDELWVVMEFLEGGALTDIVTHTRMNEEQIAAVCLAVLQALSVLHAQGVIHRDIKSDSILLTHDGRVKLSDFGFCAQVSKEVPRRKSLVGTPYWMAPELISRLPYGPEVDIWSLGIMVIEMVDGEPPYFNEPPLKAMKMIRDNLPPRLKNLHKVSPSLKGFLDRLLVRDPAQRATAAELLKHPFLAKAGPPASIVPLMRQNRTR", "assay": "mobility shift assay"}, "CRIK": {"molecular_target": "T27, CRIK (Homo sapiens, UniProt O14578)", "T27 construct": "purchased Carna Biosciences", "assay": "mobility shift assay"}, "EPHA2": {"molecular_target": "T28, EPHA2 (Homo sapiens, UniProt P29317)", "T28 construct": "purchased Carna Biosciences", "assay": "mobility shift assay"}, "MAP2K4 Cascade": {"system": "MAP2K4 Cascade", "assay": "mobility shift assay", "settings": "10 μM"}, "PAK5": {"molecular_target": "T29, PAK5 (Homo sapiens, UniProt Q9P286)", "T29 construct": "purchased Carna Biosciences", "assay": "mobility shift assay"}, "IKKα": {"molecular_target": "T30, IKKα (Homo sapiens, UniProt O15111)", "T30 construct": "purchased Carna Biosciences", "assay": "IMAP Assay"}, "SRPK2": {"molecular_target": "T31, SRPK2 (Homo sapiens, UniProt P78362)", "T31 construct": "purchased Carna Biosciences", "assay": "mobility shift assay"}, "PAK6": {"molecular_target": "T32, PAK6 (Homo sapiens, UniProt Q9NQU5)", "T32 construct": "purchased Carna Biosciences", "assay": "mobility shift assay"}, "PKCθ": {"molecular_target": "T33, PKCθ (Homo sapiens, UniProt Q04759)", "T33 construct": "purchased Carna Biosciences", "T33 sequence (Q04759 whole entry)": "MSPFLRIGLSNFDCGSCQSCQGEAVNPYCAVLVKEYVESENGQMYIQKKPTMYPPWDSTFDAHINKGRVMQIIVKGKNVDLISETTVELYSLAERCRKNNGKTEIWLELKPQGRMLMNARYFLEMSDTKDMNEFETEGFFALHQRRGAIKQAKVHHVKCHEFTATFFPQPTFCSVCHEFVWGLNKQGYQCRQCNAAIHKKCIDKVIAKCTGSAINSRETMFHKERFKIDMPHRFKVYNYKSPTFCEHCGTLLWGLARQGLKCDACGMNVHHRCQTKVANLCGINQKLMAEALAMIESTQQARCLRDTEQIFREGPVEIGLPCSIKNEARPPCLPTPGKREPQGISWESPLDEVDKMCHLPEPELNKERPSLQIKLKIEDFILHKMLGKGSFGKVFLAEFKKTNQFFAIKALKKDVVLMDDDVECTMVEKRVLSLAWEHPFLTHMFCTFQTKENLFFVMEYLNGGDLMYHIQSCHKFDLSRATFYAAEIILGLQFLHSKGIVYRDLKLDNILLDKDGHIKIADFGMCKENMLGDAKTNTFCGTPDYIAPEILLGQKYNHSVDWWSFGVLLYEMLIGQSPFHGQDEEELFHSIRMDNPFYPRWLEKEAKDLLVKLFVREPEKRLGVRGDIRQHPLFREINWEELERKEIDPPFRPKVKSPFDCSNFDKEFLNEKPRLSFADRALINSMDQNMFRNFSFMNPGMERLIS", "assay": "mobility shift assay"}, "TNK": {"molecular_target": "T34, TNK (Homo sapiens, UniProt Q9UKE5)", "T34 construct": "purchased Carna Biosciences", "T34 sequence (Q9UKE5 1-314 limits assumed)": "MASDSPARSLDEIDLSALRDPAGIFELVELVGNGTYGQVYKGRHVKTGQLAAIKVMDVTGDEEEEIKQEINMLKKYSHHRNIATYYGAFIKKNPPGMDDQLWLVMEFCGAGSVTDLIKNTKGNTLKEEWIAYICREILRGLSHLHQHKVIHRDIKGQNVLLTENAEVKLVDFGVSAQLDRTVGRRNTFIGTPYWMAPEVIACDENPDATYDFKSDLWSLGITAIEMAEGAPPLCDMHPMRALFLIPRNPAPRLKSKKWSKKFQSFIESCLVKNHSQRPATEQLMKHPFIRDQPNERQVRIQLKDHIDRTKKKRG", "assay": "mobility shift assay"}, "FYN(isoform b)": {"molecular_target": "T35, FYN(isoform b) (Homo sapiens, UniProt P06241)", "T35 construct": "purchased Carna Biosciences", "T35 sequence (P06241 1-534 isoform P06241-2)": "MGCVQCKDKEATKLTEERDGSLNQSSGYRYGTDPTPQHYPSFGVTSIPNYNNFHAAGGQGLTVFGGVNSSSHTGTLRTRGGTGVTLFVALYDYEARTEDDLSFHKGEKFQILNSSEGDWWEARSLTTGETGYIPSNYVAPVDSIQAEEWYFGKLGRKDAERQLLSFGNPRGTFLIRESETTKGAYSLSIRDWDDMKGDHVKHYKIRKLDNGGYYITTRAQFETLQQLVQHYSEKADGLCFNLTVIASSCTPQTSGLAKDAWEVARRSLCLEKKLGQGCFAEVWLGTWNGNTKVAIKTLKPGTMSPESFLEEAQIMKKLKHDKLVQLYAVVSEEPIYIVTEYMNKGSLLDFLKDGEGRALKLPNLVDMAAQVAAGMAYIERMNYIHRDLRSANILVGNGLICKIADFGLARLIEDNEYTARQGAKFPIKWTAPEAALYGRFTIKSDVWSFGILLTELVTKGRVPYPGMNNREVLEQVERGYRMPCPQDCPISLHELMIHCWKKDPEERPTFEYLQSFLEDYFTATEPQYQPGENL", "assay": "mobility shift assay"}, "MNK2": {"molecular_target": "T36, MNK2 (Homo sapiens, UniProt Q9HBH9)", "T36 construct": "purchased Carna Biosciences", "assay": "mobility shift assay"}},
  "data": [
    {"smiles": "C[C@@H]1CC[C@H]2C(C)(C)CCC[C@]2(C)c2c1oc1c(C=O)c(O)c(O)cc21", "note": "[LG-1, liphagal]", "values": [
      {"measurement": "inhibition at 10 µM", "setting": "PDGFRβ", "value": -3.4, "unit": "%"},
      {"measurement": "inhibition at 10 µM", "setting": "RSK1", "value": 34.3, "unit": "%"},
      {"measurement": "inhibition at 10 µM", "setting": "MARK4", "value": -3.8, "unit": "%"},
      {"measurement": "inhibition at 10 µM", "setting": "EPHA6", "value": 23, "unit": "%"},
      {"measurement": "inhibition at 10 µM", "setting": "PIK3CA/PIK3R1", "value": 83.4, "unit": "%"},
      {"measurement": "inhibition at 10 µM", "setting": "CLK3", "value": 5.7, "unit": "%"},
      {"measurement": "inhibition at 10 µM", "setting": "PHKG1", "value": 21.7, "unit": "%"},
      {"measurement": "inhibition at 10 µM", "setting": "PKN1", "value": 5.3, "unit": "%"},
      {"measurement": "inhibition at 10 µM", "setting": "PRKX", "value": 20, "unit": "%"},
      {"measurement": "inhibition at 10 µM", "setting": "PHKG2", "value": 1.5, "unit": "%"},
      {"measurement": "inhibition at 10 µM", "setting": "FES", "value": 23.4, "unit": "%"},
      {"measurement": "inhibition at 10 µM", "setting": "KIT(D816V)", "value": 13, "unit": "%"},
      {"measurement": "inhibition at 10 µM", "setting": "CSK", "value": 7.2, "unit": "%"},
      {"measurement": "inhibition at 10 µM", "setting": "RET", "value": 10.6, "unit": "%"},
      {"measurement": "inhibition at 10 µM", "setting": "ITK", "value": -6.5, "unit": "%"},
      {"measurement": "inhibition at 10 µM", "setting": "EEF2K", "value": 22.4, "unit": "%"},
      {"measurement": "% Inhibition", "setting": "MAPXK2 Cascade", "value": 2.7, "unit": "%"},
      {"measurement": "inhibition at 10 µM", "setting": "CDC2/CycB1", "value": 33.7, "unit": "%"},
      {"measurement": "inhibition at 10 µM", "setting": "KIT(T670I)", "value": 5.4, "unit": "%"},
      {"measurement": "inhibition at 10 µM", "setting": "CDK3/CycE1", "value": 40.1, "unit": "%"},
      {"measurement": "inhibition at 10 µM", "setting": "AKT2", "value": 6.2, "unit": "%"},
      {"measurement": "inhibition at 10 µM", "setting": "RAF1_Cascade", "value": 15.3, "unit": "%"},
      {"measurement": "inhibition at 10 µM", "setting": "DDR2", "value": 42.5, "unit": "%"},
      {"measurement": "inhibition at 10 µM", "setting": "LATS2", "value": -0.6, "unit": "%"},
      {"measurement": "inhibition at 10 µM", "setting": "PKD1", "value": 4.2, "unit": "%"},
      {"measurement": "inhibition at 10 µM", "setting": "FLT4", "value": 2.1, "unit": "%"},
      {"measurement": "inhibition at 10 µM", "setting": "EFHB2", "value": 5.4, "unit": "%"},
      {"measurement": "inhibition at 10 µM", "setting": "PAK4", "value": -24.7, "unit": "%"},
      {"measurement": "inhibition at 10 µM", "setting": "CRIK", "value": -0.8, "unit": "%"},
      {"measurement": "inhibition at 10 µM", "setting": "EPHA2", "value": 2.6, "unit": "%"},
      {"measurement": "% Inhibition", "setting": "MAP2K4 Cascade", "value": 9.1, "unit": "%"},
      {"measurement": "inhibition at 10 µM", "setting": "PAK5", "value": -2.5, "unit": "%"},
      {"measurement": "inhibition at 10 µM", "setting": "IKKα", "value": 34.4, "unit": "%"},
      {"measurement": "inhibition at 10 µM", "setting": "SRPK2", "value": 9.7, "unit": "%"},
      {"measurement": "inhibition at 10 µM", "setting": "PAK6", "value": -99.3, "unit": "%"},
      {"measurement": "inhibition at 10 µM", "setting": "PKCθ", "value": -15, "unit": "%"},
      {"measurement": "inhibition at 10 µM", "setting": "TNK", "value": 0.1, "unit": "%"},
      {"measurement": "inhibition at 10 µM", "setting": "FYN(isoform b)", "value": 3.1, "unit": "%"},
      {"measurement": "inhibition at 10 µM", "setting": "MNK2", "value": 5.9, "unit": "%"}
    ]}
  ]
}
